Measured values published in patent US10543213B2, “Treatment of relapsed and/or refractory solid tumors and non-hodgkin's lymphomas” (Celgene Quanticel Research, Inc., priority 2016, dated 2020).
Like-named read-outs stand apart in the source and are kept apart here. Blank lines part the entries; values can stand above or below the compound they belong to.

Legend:
[1] = Excretion in bile duct cannulated rats; assay type: in vivo; details: IV, 24-hour period post dosing
CYP2D6 = CYP2D6 (Homo sapiens (Human), UniProt P10635); assay: CYP inhibition in pooled human liver microsomes, CYP2D6; assay type: in vitro ADME; details: up to 50 μM
[2] = Exploratory toxicity study in dogs; assay type: in vivo, Beagle dogs
[3] = Hemodynamic and ECG parameters in anesthetized guinea pigs; assay type: in vivo, male Dunkin Hartley guinea pigs
Text: Animals were monitored throughout the experiment.

[4] = test system: Salmonella typhimurium TA98 and TA100 strains; assay: Bacterial reverse mutation assay; assay type: cell-based; details: up to 500 μg/mL, presence and absence of S9
CYP2C9 = CYP2C9 (Homo sapiens (Human), UniProt P11712); assay: CYP inhibition in pooled human liver microsomes, CYP2C9; assay type: in vitro ADME; details: up to 50 μM
[5] = dog, in vivo
[6] = 4-week oral gavage pivotal toxicity study with 4-week recovery in dogs; assay type: in vivo, Beagle dogs
NCI-H1417 SCLC xenograft = assay: Efficacy in NCI-H1417 SCLC xenograft model; assay type: in vivo, female athymic nude mice
[7] = Exploratory toxicity study in mice; assay type: in vivo, CD-1 mice; details: for reduction in neutrophil counts vs concurrent controls: 60 mg/kg/dose QOD
Text: Additional animals were included for TK evaluation.

MKL-1 hMCC xenograft = assay type: in vivo; details: 5 mg/kg 5 on/2 off
[8] = 4-week toxicity study with 4-week recovery in mice; details: 25 mg base/kg/dose QOD×3 weekly, males
[9] = Pharmacokinetics following IV and oral administration, rats; assay type: in vivo, Sprague Dawley rats; details: IV dosing
[10] = test system: recombinant human CYP enzymes; assay: CYP reaction phenotyping with recombinant human CYP enzymes; assay type: in vitro ADME
Text: The role of non-CYP enzymes in the metabolism of Compound A is yet to be ascertained.

[11] = Pharmacokinetics across species (statements covering several species); assay type: in vivo, mice, rats, dogs, and monkeys; details: plasma; for half-life: intravenous; for bioavailability: po
Experimental: Disparate half-lives were noted between rodents and non-rodents with values ranging from either 2 to 4 hours in rodents or from 12 to 20 hours in non-rodents.

LXFS 615 SCLC PDX = assay: Efficacy in LXFS 615 SCLC PDX model; assay type: in vivo, female immunodeficient NMRI-Foxn1nu mice; details: 5 mg base/kg oral for 30 days
P-gp (human MDR1) = P-gp (human MDR1) (Homo sapiens (Human), UniProt P08183); assay: Permeability in MDR1-MDCK cells; assay type: in vitro ADME; details: dog
[12] = biological target: MDR1(human P-gp)-MDCK cells (Homo sapiens (Human), UniProt P08183); assay: Permeability in MDR1-MDCK cells; assay type: in vitro ADME
LU2514 SCLC PDX = assay type: in vivo
Experimental: Tumor growth inhibition analysis was performed on Day 28 post treatment, the last day of dosing.

LXFS 573 SCLC PDX [13] = assay: Efficacy in LXFS 573 SCLC PDX model; assay type: in vivo, female immunodeficient NMRI-Foxn1nu mice; details: 5, 7.5, 10 mg/kg oral
[14] = Metabolism in cryopreserved primary hepatocytes; assay type: in vitro ADME; details: hepatocytes of mouse, rat, dog, monkey, human
LXFS 1129 SCLC PDX = assay: Efficacy in LXFS 1129 SCLC PDX model; assay type: in vivo, female immunodeficient NMRI-Foxn1nu mice; details: 1.5 and 5 mg base/kg QD for 30 days
MS-1 hMCC xenograft = assay type: in vivo; details: 5 mg/kg 5 on/2 off; Day 36 minus Day -3
[15] = 4-week toxicity study (no recovery period) in dogs; details: Q2W administration, not determined
[16] = Pharmacokinetics following IV and oral administration, mice; assay type: in vivo, CD-1 mice; details: Mouse, Female, single oral dose 10 mg base/kg
LXFS 573 SCLC PDX [17] = test system: LXFS 573 SCLC PDX
human LSD-1 = human LSD-1 (Homo sapiens (Human), UniProt O60341); assay: In vitro enzyme inhibition assay LSD-1 (TR-FRET); assay type: biochemical; details: H3K4me1-biotin labeled peptide
Text: This assay determines the ability of a test compound to inhibit LSD-1 demethylase activity.
The enzymatic assay of LSD-1 activity is based on Time Resolved-Fluorescence Resonance Energy Transfer (TR-FRET) detection.

[18] = after escalating IV doses up to 20 mg base/kg
[19] = CD-1, Sprague Dawley, mouse, rat, rodents
[20] = Etoposide at 24 mg/kg/day SC days 1-3 + Vehicle
[21] = etoposide monotherapy 24 mg/kg SC

Sequence of P-gp (human MDR1) (P08183 whole entry): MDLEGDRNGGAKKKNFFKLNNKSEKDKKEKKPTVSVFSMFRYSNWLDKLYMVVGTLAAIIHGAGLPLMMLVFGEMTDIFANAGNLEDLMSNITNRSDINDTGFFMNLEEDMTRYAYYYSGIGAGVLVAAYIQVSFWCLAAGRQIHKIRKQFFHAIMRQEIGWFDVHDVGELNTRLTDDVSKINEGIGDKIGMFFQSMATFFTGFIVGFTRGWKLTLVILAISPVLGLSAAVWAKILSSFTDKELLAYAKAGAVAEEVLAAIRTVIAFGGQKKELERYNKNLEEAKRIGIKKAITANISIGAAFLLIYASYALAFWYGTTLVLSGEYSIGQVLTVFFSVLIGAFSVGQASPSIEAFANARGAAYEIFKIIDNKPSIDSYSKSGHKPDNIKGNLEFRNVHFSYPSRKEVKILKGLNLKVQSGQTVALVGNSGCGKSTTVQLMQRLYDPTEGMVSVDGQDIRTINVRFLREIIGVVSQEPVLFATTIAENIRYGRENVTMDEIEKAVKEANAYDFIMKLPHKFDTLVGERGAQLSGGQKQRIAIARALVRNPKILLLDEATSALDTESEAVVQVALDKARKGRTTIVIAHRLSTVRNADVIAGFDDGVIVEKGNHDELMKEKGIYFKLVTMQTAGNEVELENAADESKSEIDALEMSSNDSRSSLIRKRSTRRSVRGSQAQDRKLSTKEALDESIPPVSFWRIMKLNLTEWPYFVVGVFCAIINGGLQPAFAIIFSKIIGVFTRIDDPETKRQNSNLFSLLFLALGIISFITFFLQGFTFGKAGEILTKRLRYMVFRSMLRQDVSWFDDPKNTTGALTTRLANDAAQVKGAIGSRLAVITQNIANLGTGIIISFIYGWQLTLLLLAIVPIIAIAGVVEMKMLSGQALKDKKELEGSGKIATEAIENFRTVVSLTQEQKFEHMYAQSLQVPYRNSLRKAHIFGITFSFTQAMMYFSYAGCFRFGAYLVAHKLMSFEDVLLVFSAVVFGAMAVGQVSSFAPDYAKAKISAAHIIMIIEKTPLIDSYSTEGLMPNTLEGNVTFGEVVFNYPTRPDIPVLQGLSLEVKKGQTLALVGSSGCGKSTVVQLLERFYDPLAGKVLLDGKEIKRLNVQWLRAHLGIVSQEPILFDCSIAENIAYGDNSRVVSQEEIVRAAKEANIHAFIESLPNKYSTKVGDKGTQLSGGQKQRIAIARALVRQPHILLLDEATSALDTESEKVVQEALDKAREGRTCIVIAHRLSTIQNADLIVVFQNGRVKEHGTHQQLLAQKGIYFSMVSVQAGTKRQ
Sequence of CYP2D6 (P10635 whole entry): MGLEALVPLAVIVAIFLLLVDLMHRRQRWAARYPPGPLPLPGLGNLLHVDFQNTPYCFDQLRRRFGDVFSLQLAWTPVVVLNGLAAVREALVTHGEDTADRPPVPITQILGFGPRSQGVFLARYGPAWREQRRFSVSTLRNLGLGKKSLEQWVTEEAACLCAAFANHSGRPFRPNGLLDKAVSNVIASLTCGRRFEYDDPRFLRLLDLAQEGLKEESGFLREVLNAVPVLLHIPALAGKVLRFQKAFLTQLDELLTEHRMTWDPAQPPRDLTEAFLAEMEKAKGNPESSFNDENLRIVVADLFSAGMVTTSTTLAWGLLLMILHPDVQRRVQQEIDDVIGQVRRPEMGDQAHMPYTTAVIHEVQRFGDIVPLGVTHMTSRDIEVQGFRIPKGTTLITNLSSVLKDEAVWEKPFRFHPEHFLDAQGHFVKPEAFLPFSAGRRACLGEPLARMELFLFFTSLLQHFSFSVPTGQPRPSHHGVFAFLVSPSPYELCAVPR
Sequence of MDR1(human P-gp)-MDCK cells (P08183 whole entry): as the sequence (P08183 whole entry) above
Sequence of CYP2C9 (P11712 whole entry): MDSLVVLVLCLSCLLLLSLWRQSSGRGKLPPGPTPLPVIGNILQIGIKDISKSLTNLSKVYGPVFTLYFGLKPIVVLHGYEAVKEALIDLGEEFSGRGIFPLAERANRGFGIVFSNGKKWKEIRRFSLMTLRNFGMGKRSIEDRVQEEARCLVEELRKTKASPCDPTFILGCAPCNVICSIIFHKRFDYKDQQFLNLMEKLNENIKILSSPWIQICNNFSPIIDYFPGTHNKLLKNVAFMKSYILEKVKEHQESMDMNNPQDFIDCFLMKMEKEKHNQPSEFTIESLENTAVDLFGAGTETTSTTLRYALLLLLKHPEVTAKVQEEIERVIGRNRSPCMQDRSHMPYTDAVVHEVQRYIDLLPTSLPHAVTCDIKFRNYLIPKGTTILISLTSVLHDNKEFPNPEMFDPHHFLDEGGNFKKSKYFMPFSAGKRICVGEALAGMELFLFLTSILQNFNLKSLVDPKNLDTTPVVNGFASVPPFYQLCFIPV

SMILES: COc1ccc(-c2c(-c3ccc(C#N)c(F)c3)nc(N3CCC(N)CC3)n(C)c2=O)cc1F [Compound A, 4-[2-(4-amino-piperidin-1-yl)-5-(3-fluoro-4-methoxy-phenyl)-1-methyl-6-oxo-1,6-dihydro-pyrimidin-4-yl]-2-fluoro-benzonitrile]
- dose excreted intact (urine and bile) [1]: 26.3 % of the dose
- dose excreted intact in urine [1]: 8.5 % of dose
- direct inhibitory effect (CYP2D6): little to no direct inhibitory effect
- treatment-related effects ([2]; 0.25 mg/kg/dose QOD): generally no Compound A-related effects
- accumulation after repeat dosing ([2]; QOD schedule): no accumulation
- maximum increase of QTcB interval vs time-matched vehicle ([3]; 10 mg base/kg IV): approximately 9%
- maximum increase of QTcB interval vs time-matched vehicle ([3]; 15 mg base/kg IV): ~13%
- maximum increase of QTcB interval vs time-matched vehicle ([3]; 20 mg base/kg IV): ~16%
- decrease in HR, maximum suppression as compared with vehicle ([3]; 20 mg base/kg IV, 9 minutes into the 10-minute infusion): 19%
- effect in MAP or its components ([3]; 5-20 mg base/kg IV vs time-matched vehicle): No notable effect
- NOAEL for hemodynamic and ECG endpoints ([3]; IV administration): 10 mg base/kg
- QTcB interval increase at the end of the monitoring period [3, 18]: 10%
- heart rate decrease at the end of the monitoring period [3, 18]: 18%
- mutagenicity [4]: negative
- direct inhibitory effect (CYP2C9): little to no direct inhibitory effect
- accumulation after multiple doses [5]: No accumulation
- AUC0-96 ([5]; female, Beagle, po, 0.25 mg/kg): 343 ng·h/mL
- Cmax ([5]; female, Beagle, po, 0.25 mg/kg): 12.1 ng/mL
- AUC0-96 ([5]; female, Beagle, po, 0.5 mg/kg): 729 ng·h/mL
- cause of moribund condition ([6]; 0.375 to 1.5 mg base/kg weekly): gastric mucosal ulceration and/or acute inflammation
- accumulation after multiple dosing ([6]; dog, in vivo): No accumulation
- platelet count ([6]; dog, in vivo): mildly to markedly decreased
- AUC0-168 ([6]; female, Beagle, dog, in vivo, po): 435 ng·h/mL
- Cmax ([6]; male, Beagle, dog, in vivo, po): 17.2 ng/mL
- HNSTD and NOAEL for the QW or BIW dose schedule ([6]; not determined): < 0.375 mg base/kg/dose
- moribund euthanasia ([6]; weekly oral, 1 male 0.375 QW, 2 males and 1 female 0.75, 3 males and 4 females 1.5 mg base/kg/dose, Days 13 to 23): 11 animals
- mean body weight gain by the end of study (NCI-H1417 SCLC xenograft; 2.5 mg base/kg PO QDx65): 1%
- mean body weight gain by the end of study (NCI-H1417 SCLC xenograft; 5 mg base/kg PO QDx65): 7.5%
- tumors from treated animals regressed in net volume (NCI-H1417 SCLC xenograft; 2.5 and 5 mg base/kg groups together, end of study): 14 out of 15
- tolerability (NCI-H1417 SCLC xenograft; 2.5 or 5 mg base/kg PO QDx65): well tolerated
- increase in platelets on Day 8 compared with the end of the first dosing period ([7]; 10 mg/kg/day 5 days on/2 days off): > 2 fold
- reduction in neutrophil counts vs concurrent controls ([7]; females): 66%
- reduction in neutrophil counts vs concurrent controls ([7]; males): 83%
- greatest reduction in neutrophil counts vs concurrent controls and pre-study values ([7]; 5 days on/2 days off schedule): approximately 90%
- circulating platelets ([7]; all dose levels, end of the study): reduced
- accumulation upon repeat dosing ([7]; mice): no accumulation
- Median Tumor Volumes Day 15 (MKL-1 hMCC xenograft): 880 mm^3
- mean steady state AUC0-24 [8]: 17,800 ng·hr/mL
- systemic clearance [9]: greater than liver blood flow
- CYP enzyme responsible for oxidative metabolism [10]: CYP3A4 appears to be predominantly responsible
- half-life ([11]; Beagle, Cynomolgus, dog, monkey, non-rodents): 12 to 20 h
- bioavailability ([11]; Beagle, dog, cynomolgus monkey, dogs and monkeys): 82 to 100%
- Tmax ([11]; CD-1, Sprague Dawley, Beagle, mouse, rat, dog, cynomolgus monkey, oral dosing, mice, rats, dogs, and monkeys, read-out: median time to peak plasma concentration (tmax)): 0.5 to 6 h
- half-life [11, 19]: 2 to 4 h
- bioavailability [11, 19]: 28 to 74%
- mean body weight losses (LXFS 615 SCLC PDX): < 1%
- Papp (P-gp (human MDR1); MDCK-MDR1, A→B direction): 0.5 ×10⁻⁶ cm/s
- Papp (P-gp (human MDR1); MDCK-MDR1, B→A direction): 16.5 ×10⁻⁶ cm/s
- P-gp substrate status [12]: P-gp substrate
- tolerability (LU2514 SCLC PDX; both LU2514 studies): well tolerated
- mean body weight losses (LU2514 SCLC PDX; mouse, in vivo): < 10%
- mean body weight losses (LXFS 573 SCLC PDX [13]): ≤ 3%
- metabolic stability [14]: greater in rat and dog followed by human and monkeys while being least stable in mouse hepatocytes
- mean body weight losses (LXFS 1129 SCLC PDX): < 6%
- Median Tumor Volumes Diff (MS-1 hMCC xenograft): 80 mm^3
- NOAEL [15]: < 0.5 mg base/kg/dose
- AUClast [16]: 2007 ng·h/mL

SMILES: COc1cc([C@@H]2c3cc4c(cc3[C@@H](O[C@@H]3O[C@@H]5CO[C@@H](C)O[C@H]5[C@H](O)[C@H]3O)[C@H]3COC(=O)[C@H]23)OCO4)cc(OC)c1O [Etoposide, etoposide, reference compound]
- % TGD (LXFS 573 SCLC PDX [17]; [20]): 50%
- T-C (LXFS 573 SCLC PDX [17]; [20]): 21 days
- median TTE (LXFS 573 SCLC PDX [17]; [20]): 63 days
- SS number of study survivors (LXFS 573 SCLC PDX [17]; Etoposide at 24 mg/kg/day SC days 1-3 + Vehicle, Day 133, N=8): 0 (na)
- % TGD (LXFS 573 SCLC PDX [17]; [21]): 50%
- TGD (LXFS 573 SCLC PDX [17]; [21]): 21 days
- median TTE (LXFS 573 SCLC PDX [17]; [21]): 63 days

SMILES: CCn1c(N2CCC(N)CC2)nc(-c2ccc(C#N)c(F)c2)cc1=O [Example 13, 4-[2-(4-amino-piperidin-1-yl)-1-ethyl-6-oxo-1,6-dihydro-pyrimidin-4-yl]-2-fluoro-benzonitrile]
- IC50 (human LSD-1): 0.1 to 1 µM

SMILES: N#Cc1ccc(-c2cc(=O)n(CCCO)c(N3CCC(N)CC3)n2)cc1F [Example 17, 4-[2-(4-amino-piperidin-1-yl)-1-(3-hydroxy-propyl)-6-oxo-1,6-dihydro-pyrimidin-4-yl]-2-fluoro-benzonitrile]
- IC50 (human LSD-1): 0.1 to 1 µM

SMILES: Cn1c(N2CCC(N)CC2)nc(-c2ccc(C#N)c(F)c2)c(-c2ccc(C(=O)O)cc2)c1=O [Example 39, 4-[2-(4-aminopiperidyl)-6-(4-cyano-3-fluorophenyl)-3-methyl-4-oxo-3-hydropyrimidin-5-yl] benzoic acid]
- IC50 (human LSD-1): 0.1 to 1 µM

SMILES: N#Cc1ccc(-c2cc(=O)n(CC3CC3)c(N3CCC(N)CC3)n2)cc1F [Example 109, 4-[2-(4-amino-piperidin-1-yl)-1-cyclopropylmethyl-6-oxo-1,6-dihydro-pyrimidin-4-yl]-2-fluoro-benzonitrile]
- IC50 (human LSD-1): 0.1 to 1 µM

- IC50 (human LSD-1): 0.1 to 1 µM
SMILES: Cn1c(N2CCC(N)CC2)nc(-c2ccncc2)c(-c2ccc3c(ccn3C)c2)c1=O [Example 116, 2-(4-amino-piperidin-1-yl)-3-methyl-5-(1-methyl-1H-indol-5-yl)-6-pyridin-4-yl-3H-pyrimidin-4-one]
